Data as given in US20240150423A1, “GLP-1 ANALOGUE-MODIFIED DIMERS WITH DIFFERENT CONFIGURATIONS, PREPARATION METHOD THEREOF, AND APPLICATION THEREOF IN TREATMENT OF TYPE II DIABETES” (Nanjing Finepeptide Biopharmaceutical Co.,Ltd, priority 2019, published 2024).
Positions of bridges follow the written chain, without caps; N, C: chain ends. Non-standard residues stand in square brackets, D forms with d. Chains are numbered I, II in the order given. No end group written: not given here. bAib = not defined here; βAla = NCCC(=O)O

System: Normal Kunming (KM) mice
Assay: multiple OGTT (mOGTT): hypoglycemic duration after a single administration
Assay type: in vivo
Settings: single injection at the same dose (1.126 nmol), subcutaneous
Description: • 1. Methods: Normal Kunming (KM) mice (purchased from Guangdong Animal Center) were used for oral glucose tolerance test (OGTT) to obtain the hypoglycemic activity and durability of drug. […] The blood glucose meter and blood glucose test paper were from Bayer […]. The average blood glucose of each group was used as an evaluation standard: When the average blood glucose of experimental group was higher than that of the NaCl control group for two times, the measurement stopped and the hypoglycemic period compared to the blank control group was the effective duration. • 2. Results • 2.1 single OGTTs: after a single administration, the mice were orally administered glucose once and measured the blood glucose from the tail blood at 0, 10, 20, 40, 60 and 120 min. […] The duration of each monomer group was about 1⁄2-1⁄4 of the duration of its corresponding dimer group. […] Therefore, the 2G3 peptide was selected for treating type II diabetes (T2D) in vivo and subsequent experiments.

Substance | Hypoglycemic duration [days] | Hypoglycemic duration (days)
2G2 series 8: disulfide-linked homodimer of monomer SEQ ID NO: 8 (HAEGTFTSDVCSYLEGQAAXEFIAWLVRGRG; not fully specified; disulfide-linked homodimer; Sequence is synthesized; (20)..(20) Xaa is Xaa is 26Lys[N-e-(N-a-Palmitoyl-g-glutamyl)]; (31)..(31) N-terminal) | 7 | 
2G2 series 9: disulfide-linked homodimer of monomer SEQ ID NO: 9 (HAEGTFTSDVCSYLEGQAAXEFIAWLVRGRG; disulfide-linked homodimer; Sequence is synthesized; (20)..(20) Xaa is 26Lys[N-e-(N-a-oleoyl-L-g-glutamyl)]; (31)..(1) C-terminal) | 5 | 
2G2 series 16: disulfide-linked homodimer of monomer SEQ ID NO: 16 (chain 1 H[bAib]EGTFTSDVCSYLEGQAAKEFIAWLVR[bAib]R; chain 2 H[bAib]EGTFTSDVCSYLEGQAAKEFIAWLVR[bAib]R; disulfide I:11-II:11 (inferred); not fully specified; reading uncertain) | 4 | 
2G2 series 17: disulfide-linked homodimer of monomer SEQ ID NO: 17 (chain 1 H[bAib]EGTFTSDVCSYLEGQAAKEFIAWLVK[bAib]R-NH2; chain 2 H[bAib]EGTFTSDVCSYLEGQAAKEFIAWLVK[bAib]R-NH2; disulfide I:11-II:11 (inferred); not fully specified; reading uncertain; also: disulfide-linked homodimer) | 4 | 
2G2 series 19: disulfide-linked homodimer of monomer SEQ ID NO: 19 (chain 1 H[βAla]EGTFTSDVCSYLEGQAAKEFIAWLVR[βAla]R; chain 2 H[βAla]EGTFTSDVCSYLEGQAAKEFIAWLVR[βAla]R; disulfide I:11-II:11 (inferred); not fully specified (C-terminus)) | 3 | 
2G3 series 21: disulfide-linked homodimer of monomer SEQ ID NO: 21 (HAEGTFTSDVSCYLEGQAAXEFIAWLVRGRG; disulfide-linked homodimer; Sequence is synthesized; (20)..(20) Xaa is 26Lys[N-e-(N-a-oleoyl-L-g-glutamyl)]; (31)..(31) C-terminal) | 14 | 
2G3 series 22: disulfide-linked homodimer of monomer SEQ ID NO: 22 (HAEGTFTSDVSCYLEGQAAXEFIAWLVRGRG; not fully specified; disulfide-linked homodimer; Sequence is synthesized; (20)..(20) Xaa is 26Lys[N-e-(N-a-palmitoyl-L-g-glutamyl)]; (31)..(31) N-terminal) | 16 | 
2G3 series 23: disulfide-linked homodimer of monomer SEQ ID NO: 23 (HAEGTFTSDVSCYLEGQAAXEFIAWLVRGRG; disulfide-linked homodimer; Sequence is synthesized; (20)..(20) Xaa is 26Lys[N-e-(N-a-oleoyl-L-g-glutamyl)]; (31)..(31) N-terminal) | 17 | 
2G4 series 25: disulfide-linked homodimer of monomer SEQ ID NO: 25 (HAEGTFTSDVCSYLEGQAAXEFIAWLVRGRG; not fully specified; disulfide-linked homodimer; Sequence is synthesized; (20)..(20) Xaa is 26Lys[N-e-(N-a-palmitoyl-L-g-glutamyl)]; (31)..(31) N-terminal) | 14 | 
2G4 series 26: disulfide-linked homodimer of monomer SEQ ID NO: 26 (HAEGTFTSDVCSYLEGQAAXEFIAWLVRGRG; not fully specified; disulfide-linked homodimer; Sequence is synthesized; (20)..(20) Xaa is 26Lys[N-e-(N-a-oleoyl-L-g-glutamyl)]; (31)..(31) C-terminal) | 12 | 
2G4 series 27: disulfide-linked homodimer of monomer SEQ ID NO: 27 (HAEGTFTSDVCSYLEGQAAXEFIAWLVRGRG; not fully specified; disulfide-linked homodimer; Sequence is synthesized; (20)..(20) Xaa is 26Lys[N-e-(N-a-oleoyl-L-g-glutamyl)]; (31)..(31) N-terminal) | 15 | 
2G4 series 30: disulfide-linked homodimer of monomer SEQ ID NO: 30 (HXEGTFTSDVCSYLEGQAAXEFIAWLVRGRG; not fully specified; disulfide-linked homodimer; Sequence is synthesized; (2)..(2) Xaa is bAib; (20)..(20) Xaa is 26Lys[N-e-(N-a-oleoyl-L-g-glutamyl)]; (31)..(31) N-terminal) | 16 | 
2G4 series 31: disulfide-linked homodimer of monomer SEQ ID NO: 31 (HXEGTFTSDVCSYLEGQAAXEFIAWLVRGRG; not fully specified; disulfide-linked homodimer; Sequence is synthesized; (2)..(2) Xaa is bAla; (20)..(20) Xaa is 26Lys[N-e-(N-a-oleoyl-L-g-glutamyl)]; (31)..(31) N-terminal) | 15 | 
2G4 series 32: disulfide-linked homodimer of monomer SEQ ID NO: 32 (HAEGTFTSDVSCYLEGQAAXEFIAWLVRGRG; not fully specified; disulfide-linked homodimer; Sequence is synthesized; (20)..(20) Xaa is 26Lys[N-e-(N-a-oleoyl-L-g-glutamyl)]; (31)..(31) C-terminal) | 13 | 
2G4 series 33: disulfide-linked homodimer of monomer SEQ ID NO: 33 (HAEGTFTSDVSCYLEGQAAXEFIAWLVRGRG; not fully specified; disulfide-linked homodimer; Sequence is synthesized; (20)..(20) Xaa is 26Lys[N-e-(N-a-oleoyl-L-g-glutamyl)]; (31)..(31) N-terminal) | 16 | 
2G4 series 34: disulfide-linked homodimer of monomer SEQ ID NO: 34 (HAEGTFTSDVSCYLEGQAAXEFIAWLVRGRG; not fully specified; disulfide-linked homodimer; Sequence is synthesized; (20)..(20) Xaa is 26Lys[N-e-(N-a-palmitoyl-L-g-glutamyl)]; (31)..(31) C-terminal) | 13 | 
2G4 series 35: disulfide-linked homodimer of monomer SEQ ID NO: 35 (HAEGTFTSDVSCYLEGQAAXEFIAWLVRGRG; not fully specified; disulfide-linked homodimer; Sequence is synthesized; (20)..(20) Xaa is 26Lys[N-e-(N-a-palmitoyl-L-g-glutamyl)]; (31)..(31) N-terminal) | 15 | 
2G4 series 38: disulfide-linked homodimer of monomer SEQ ID NO: 38 (HXEGTFTSDVSCYLEGQAAXEFIAWLVRGRG; disulfide-linked homodimer; Sequence is synthesized; (2)..(2) Xaa is bAib; (20)..(20) Xaa is 26Lys[N-e-(N-a-oleoyl-L-g-glutamyl)]; (31)..(31) N-terminal) | 17 | 
2G4 series 39: disulfide-linked homodimer of monomer SEQ ID NO: 39 (HXEGTFTSDVSCYLEGQAAXEFIAWLVRGRG; disulfide-linked homodimer; Sequence is synthesized; (2)..(2) Xaa is bAla; (20)..(20) Xaa is 26Lys[N-e-(N-a-oleoyl-L-g-glutamyl)]; (31)..(31) N-terminal) | 16 | 
2G5 series 40: disulfide-linked homodimer of monomer SEQ ID NO: 40 (HAEGTFTSDVSCYLEGQAAXEFIAWLVXGRG; disulfide-linked homodimer; Sequence is synthesized; (20)..(20) Xaa is 26Lys[N-e-(N-a-palmitoyl-L-g-glutamyl)]; (28)..(28) Xaa is 26Lys[N-e-(N-a-palmitoyl-L-g-glutamyl)]; (31)..(31) C-terminal) |  | 3 (2G5 peptide) days
2G5 series 41: disulfide-linked homodimer of monomer SEQ ID NO: 41 (HAEGTFTSDVSCYLEGQAAXEFIAWLVXGRG; disulfide-linked homodimer; Sequence is synthesized; (20)..(20) Xaa is 26Lys[N-e-(N-a-palmitoyl-L-g-glutamyl)]; (28)..(28) Xaa is 26Lys[N-e-(N-a-palmitoyl-L-g-glutamyl)]; (31)..(31) N-terminal) | 5 | 
2G5 series 43: disulfide-linked homodimer of monomer SEQ ID NO: 43 (HXEGTFTSDVSCYLEGQAAXEFIAWLVXGRG; disulfide-linked homodimer; Sequence is synthesized; (2)..(2) Xaa is bAib; (20)..(20) Xaa is 26Lys[N-e-(N-a-palmitoyl-L-g-glutamyl)]; (28)..(28) Xaa is 26Lys[N-e-(N-a-palmitoyl-L-g-glutamyl)]; (31)..(31) N-terminal) | 7 | 
